Consider 36 compounds from patent US11369565B2, “Amino-pyrimidine skeletal muscle modulators” (Cytokinetics, Inc., priority 2010, dated 2022).

The test system of this assay is rabbit skeletal myofibrils (approximately 90% fast fibers). The experiment in a line: Activation of fast skeletal myofibrils (PUMA coupled-enzyme ATPase assay at pCa25). The format is biochemical. The conditions noted are these: concentration at which the compound increased the enzymatic activity by 40%; calcium at pCa25; PM12 buffer pH 6.8. Put shortly:
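In pH 6.8 PM12 buffer (12 mM Pipes, 2 mM MgCl2, 1 mM DTT), ADP from myosin regenerated via pyruvate kinase/lactate dehydrogenase, with absorbance change at 340 nm from NADH oxidation as read-out. Calcium set at pCa25; Triton-washed rabbit skeletal myofibrils (about 90% fast fibres) used.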
Regarding `O=C(NC1(c2ccc(F)cc2)CCC1)c1cnc(NC2(c3ccc(F)cc3)CCC2)nc1C(F)(F)F` [N-[(4-fluorophenyl)cyclobutyl](2-{[(4-fluorophenyl)cyclobutyl]amino}-4-(trifluoromethyl)pyrimidin-5-yl)carboxamide], the “Mean AC1.4” value is listed as “D (D=>20 uM)”.
As for `CC(=O)N1CC(NC(=O)c2cccc(-c3cnc(NC[C@]4(c5ncccc5F)C[C@H](F)C4)nc3)c2)C1` [N-(1-acetylazetidin-3-yl){3-[2-({[3-fluoro-1-(3-fluoro(2-pyridyl))cyclobutyl]methyl}amino)pyrimidin-5-yl]phenyl}carboxamide], the entry is “B (B=1-10 uM)”; as for `CC(C)(C)OC(=O)NCc1cnc(-c2cnc(NCC3(c4ncccc4F)CCC3)nc2)s1` [(tert-butoxy)-N-({2-[2-({[(3-fluoro(2-pyridyl))cyclobutyl]methyl}amino)pyrimidin-5-yl](1,3-thiazol-5-yl)}methyl)carboxamide], “B (B=1-10 uM)”.
As for `Nc1cncc(-c2cnc(NC[C@]3(c4ncccc4F)C[C@H](F)C3)nc2)n1` [[5-(6-aminopyrazin-2-yl)pyrimidin-2-yl]{[3-fluoro-1-(3-fluoro(2-pyridyl))cyclobutyl]methyl}amine], the entry is “B (B=1-10 uM)”; as for `CS(=O)(=O)N1CC(NC(=O)c2cccc(-c3cnc(NC[C@]4(c5ncccc5F)C[C@H](F)C4)nc3)c2)C1` [{3-[2-({[3-fluoro-1-(3-fluoro(2-pyridyl))cyclobutyl]methyl}amino)pyrimidin-5-yl]phenyl}-N-[1-(methylsulfonyl)azetidin-3-yl]carboxamide], “B (B=1-10 uM)”.
With `Fc1cccnc1C1(CNc2ncc(-c3ncc[nH]3)cn2)CCC1` [{[(3-fluoro(2-pyridyl))cyclobutyl]methyl}(5-imidazol-2-ylpyrimidin-2-yl)amine] the entry was “C (C=10-20 uM)”; with `Oc1ncccc1-c1cnc(NC[C@]2(c3ncccc3F)C[C@H](F)C2)nc1` [3-[2-({[3-fluoro-1-(3-fluoro(2-pyridyl))cyclobutyl]methyl}amino)pyrimidin-5-yl]pyridin-2-ol], “C (C=10-20 uM)”; with `NC(=O)c1ccc2nc(NC3(c4ncccc4F)CCC3)ncc2c1` [2-{[(3-fluoro-2-pyridyl)cyclobutyl]amino} quinazoline-6-carboxamide], “D (D=>20 uM)”.
As to `NC(=O)c1cc(-c2cnc(NC3(c4ccc(F)cc4)CCC3)nc2)ccn1` [4-(2-{[(4-fluorophenyl)cyclobutyl]amino}pyrimidin-5-yl)pyridine-2-carboxamide], the “Mean AC1.4” value was “B (B=1-10 uM)”.
With `CC(C)(CNc1ncc(-c2ccc3[nH]c(=O)[nH]c3c2)cn1)c1ccc(F)cc1` [5-(2-{[2-(4-fluorophenyl)-2-methylpropyl]amino}pyrimidin-5-yl)-3-hydrobenzimidazol-2-one] the entry was “B (B=1-10 uM)”; with `CC(C)(Nc1ncc(-c2ncc(C(=O)O)o2)cn1)c1ncccc1Cl` [2-(2-{[1-(3-chloro(2-pyridyl))-isopropyl]amino}pyrimidin-5-yl)-1,3-oxazole-5-carboxylic acid], “D (D=>20 uM)”.
As for `O=C(Nc1ccccc1F)c1cnc(NCC2(c3ncccc3F)CCC2)nc1` [[2-({[(3-fluoro(2-pyridyl))cyclobutyl]methyl}amino)pyrimidin-5-yl]-N-(2-fluorophenyl)carboxamide], the entry is “D (D=>20 uM)”; as for `NC(=O)c1cnc(-c2cnc(NCC3(c4ncccc4F)CCC3)nc2)s1` [2-[2-({[(3-fluoro-2-pyridyl)cyclobutyl]methyl}amino)pyrimidin-5-yl]-1,3-thiazole-5-carboxamide], “A (A=<1 uM)”.
As for `Nc1cnc(-c2cnc(NC[C@]3(c4ncccc4F)C[C@H](F)C3)nc2)cn1` [[5-(5-aminopyrazin-2-yl)pyrimidin-2-yl]{[3-fluoro-1-(3-fluoro(2-pyridyl))cyclobutyl]methyl}amine], the entry is “B (B=1-10 uM)”.
Regarding `COc1cccnc1C(C)(C)Nc1ncc(-c2cc(C#N)ccc2F)cn1` [4-fluoro-3-(2-{[1-(3-methoxy(2-pyridyl))-isopropyl]amino}pyrimidin-5-yl)benzenecarbonitrile], the “Mean AC1.4” value is recorded as “D (D=>20 uM)”.
For `O=C1Cc2cccc(-c3cnc(NC[C@]4(c5ncccc5F)C[C@H](F)C4)nc3)c2N1` [7-[2-({[3-fluoro-1-(3-fluoro(2-pyridyl))cyclobutyl)]methyl}amino) pyrimidin-5-yl]indolin-2-one], the “Mean AC1.4” value is on record as “B (B=1-10 uM)”.
With `CC(C)(Nc1ncc(-c2cnn(CCO)c2)cn1)c1ncccc1Cl` [2-[4-(2-{[1-(3-chloro(2-pyridyl))-isopropyl]amino}pyrimidin-5-yl)pyrazolyl]ethan-1-ol], the “Mean AC1.4” value is given as “D (D=>20 uM)”.
As for `O=C(O)c1ccc(O)c(-c2cnc(NC[C@]3(c4ncccc4F)C[C@H](F)C3)nc2)c1` [3-[2-({[3-fluoro-1-(3-fluoro(2-pyridyl))cyclobutyl]methyl}amino)pyrimidin-5-yl]-4-hydroxybenzoic acid], the entry is “A (A=<1 uM)”.
With `NC(=O)c1n[nH]c2cc(F)c(-c3cnc(NC4(c5ncccc5F)CCC4)nc3)cc12` [6-fluoro-5-(2-{[(3-fluoro(2-pyridyl))cyclobutyl]amino}pyrimidin-5-yl)-1H-indazole-3-carboxamide] the entry was “A (A=<1 uM)”.
As for `CCOC(=O)c1noc(-c2cnc(NC(C)(C)c3ncccc3Cl)nc2)n1` [ethyl 5-(2-{[1-(3-chloro(2-pyridyl))-isopropyl]amino}pyrimidin-5-yl)-1,2,4-oxadiazole-3-carboxylate], the entry is “D (D=>20 uM)”.
Take `CC(C)(C)NC(=O)c1cc(-c2cnc(NC(C)(C)c3ncccc3Cl)nc2)cnn1` [N-(tert-butyl)[5-(2-{[1-(3-chloro(2-pyridyl))-isapropyl]amino}pyrimidin-5-yl)pyridazin-3-yl]carboxamide]: the “Mean AC1.4” value was “D (D=>20 uM)”.
As for `CC(C)(Nc1ncc(-c2cnn(CC(N)=O)c2)cn1)c1ncccc1Cl` [2-[4-(2-{[1-(3-chloro(2-pyridyl))-isopropyl]amino}pyrimidin-5-yl)pyrazolyl]acetamide], the entry is “D (D=>20 uM)”; as for `CC(C)(CNc1ncc(-c2cccc(C(N)=O)c2)cn1)c1ncccc1F` [3-(2-{[2-(3-fluoro(2-pyridyl))-2-methylpropyl]amino}pyrimidin-5-yl)benzamide], “B (B=1-10 uM)”; as for `O=C(O)c1cnn(-c2cnc(NCC3(c4ncccc4F)CCC3)nc2)c1` [1-[2-({[(3-fluoro-2-pyridyl)cyclobutyl]methyl}amino)pyrimidin-5-yl]pyrazole-4-carboxylic acid], “D (D=>20 uM)”.
With `CC(C)(Nc1ncc(-n2cc(C(=O)O)cn2)cn1)c1ncccc1Cl` [1-(2-{[1-(3-chloro(2-pyridyl))-isopropyl]amino}pyrimidin-5-yl)pyrazole-4-carboxylic acid] the entry was “D (D=>20 uM)”; with `COc1nc(NC[C@]2(c3ncccc3F)C[C@@H](F)C2)ncc1-c1ccccc1` [{[3-fluoro-1-(3-fluoro(2-pyridyl))cyclobutyl]methyl)(4-methoxy-5-phenylpyrimidin-2-yl)amine], “B (B=1-10 uM)”.
As for `NC(=O)c1ccc(F)c(-c2cnc(NCC3(c4ncccc4Cl)CCC3)nc2)c1` [3-[2-({[(3-chloro(2-pyridyl))cyclobutyl]methyl}amino)pyrimidin-5-yl]-4-fluorobenzamide], the entry is “A (A=<1 uM)”; as for `CC(=O)NCc1cnc(-c2cnc(NCC3(c4ncccc4Cl)CCC3)nc2)s1` [N-({2-[2-({[(3-chloro-2-pyridyl)cyclobutyl]methyl}amino)pyrimidin-5-yl]-1,3-thiazol-5-yl}methyl)acetamide], “A (A=<1 uM)”.
Consider `C[S+]([O-])c1ccc(C(C)(C)Nc2ncc(-c3cccc(C(N)=O)c3)cn2)cc1` (stereo not drawn) [3-(2-(2-(4-(methylsulfinyl)phenyl)propan-2-ylamino)pyrimidin-5-yl)benzamide], for which the “Mean AC1.4” value is on record as “D (D=>20 uM)”.
As for `NC(=O)c1cccc(-c2cnc(NC[C@]3(c4ncccc4F)C[C@H](F)C3)nc2)c1O` [3-[2-({[3-fluoro-1-(3-fluoro(2-pyridyl))cyclobutyl]methyl)amino)pyrimidin-5-yl]-2-hydroxybenzamide], the entry is “A (A=<1 uM)”; as for `Cn1nc(-c2cnc(NC(C)(C)c3ncccc3Cl)nc2)cc1C(N)=O` [3-(2-{[1-(3-chloro(2-pyridyl))-isopropyl]amino}pyrimidin-5-yl)-1-methylpyrazole-5-carboxamide], “D (D=>20 uM)”; as for `Oc1cnc(-c2cnc(NC[C@]3(c4ncccc4F)C[C@H](F)C3)nc2)c(F)c1` [5-fluoro-6-[2-(([3-fluoro-1-(3-fluoro(2-pyridyl))cyclobutyl]methyl}amino)pyrimidin-5-yl]pyridin-3-ol], “B (B=1-10 uM)”.
As for `CNC(=O)c1ccc(F)c(-c2cnc(NCC3(c4ncccc4F)CCC3)nc2)c1` [{4-fluoro-3-[2-({[(3-fluoro(2-pyridyl))cyclobutyl]methyl}amino)pyrimidin-5-yl]phenyl}-N-methylcarboxamide], the entry is “B (B=1-10 uM)”; as for `CNC(=O)c1ccnc(-c2cnc(NC[C@]3(c4ncccc4F)C[C@H](F)C3)nc2)c1` [{2-[2-({[3-fluoro-1-(3-fluoro(2-pyridyl))cyclobutyl]methyl}amino)pyrimidin-5-yl](4-pyridyl)}-N-methylcarboxamide], “B (B=1-10 uM)”.
As for `COC(=O)c1ccc(O)c(-c2cnc(NC[C@]3(c4ncccc4F)C[C@H](F)C3)nc2)c1` [methyl 3-[2-({[3-fluoro-1-(3-fluoro(2-pyridyl))cyclobutyl]methyl)amino)pyrimidin-5-yl]-4-hydroxybenzoate], the entry is “A (A=<1 uM)”; as for `CC(C)(Nc1ncc(-c2cn3cccc(C(N)=O)c3n2)cn1)c1ncccc1Cl` [2-(2-{[1-(3-chloro(2-pyridyl))-isopropyl]amino}pyrimidin-5-yl)-4-hydroimidazo[1,2-a]pyridine-8-carboxamide], “B (B=1-10 uM)”.
